Laboratory results as given in publication PMC10184313, “Inhibition of Thiamine Diphosphate-Dependent Enzymes by Triazole-Based Thiamine Analogues” (ACS Medicinal Chemistry Letters, 2023).

Experiments:
E. coli OGDHc E1 = biological target: T1, E. coli OGDHc E1 (Escherichia coli, UniProt P0AFG3); assay: E. coli OGDHc E1 inhibitory activity assay (DCPIP reduction); assay type: biochemical; details: E. coli OGDHc E1; read-out: KM(ThDP) OGDHc E1
T1 sequence (P0AFG3 1-933): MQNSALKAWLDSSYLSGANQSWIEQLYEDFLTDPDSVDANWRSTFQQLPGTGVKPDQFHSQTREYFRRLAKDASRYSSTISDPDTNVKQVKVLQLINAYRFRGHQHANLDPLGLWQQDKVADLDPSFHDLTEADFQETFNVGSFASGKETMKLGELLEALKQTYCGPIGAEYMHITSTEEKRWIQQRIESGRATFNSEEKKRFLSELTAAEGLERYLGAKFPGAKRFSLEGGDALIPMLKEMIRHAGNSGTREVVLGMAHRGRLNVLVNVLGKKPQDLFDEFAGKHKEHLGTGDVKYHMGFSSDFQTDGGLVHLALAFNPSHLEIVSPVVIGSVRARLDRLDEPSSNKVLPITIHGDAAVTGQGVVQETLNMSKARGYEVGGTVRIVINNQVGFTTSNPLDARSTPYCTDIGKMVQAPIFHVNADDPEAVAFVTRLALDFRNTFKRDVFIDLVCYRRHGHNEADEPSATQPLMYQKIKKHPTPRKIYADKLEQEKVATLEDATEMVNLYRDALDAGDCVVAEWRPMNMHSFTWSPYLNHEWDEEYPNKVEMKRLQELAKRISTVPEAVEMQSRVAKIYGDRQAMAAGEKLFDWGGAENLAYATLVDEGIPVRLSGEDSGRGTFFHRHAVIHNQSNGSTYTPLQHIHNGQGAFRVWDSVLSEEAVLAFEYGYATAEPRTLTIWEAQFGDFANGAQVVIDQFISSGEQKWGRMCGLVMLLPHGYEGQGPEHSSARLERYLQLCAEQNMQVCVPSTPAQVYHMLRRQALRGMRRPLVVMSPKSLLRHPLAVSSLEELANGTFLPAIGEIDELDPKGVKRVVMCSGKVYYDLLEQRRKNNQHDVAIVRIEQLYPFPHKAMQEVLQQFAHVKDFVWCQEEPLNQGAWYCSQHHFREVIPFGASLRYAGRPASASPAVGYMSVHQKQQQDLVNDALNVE
Method: E. coli OGDHc E1 inhibitory activity assay. E. coli OGDHc E1 was from our previous work 5 and had been donated by R. Frank. Its activity was determined by monitoring DCPIP reduction at 600 nm using a microplate reader (CLARIOstar) and conducted as described 1,2 with some modifications. The percentage inhibition of compounds against E. coli OGDHc E1 was assayed at a final concentration of 250 µM. The reaction buffer (50 mM KH 2PO4 and 2 mM MgCl 2, pH 7) contained 50 µM ThDP (or 125 µM in the competition assay), 0.5 mM DCPIP, and 6.7 mg/ml E. coli OGDHc E1. The reaction mixture was preincubated at 37 °C for 60 min, then reaction was initiated by adding α-ketoglutarate to a final concentration of 10 mM. To determine the IC 50, ThDP concentration was lowered to 30 µM, and inhibitor concentration was varied (2-1000 µM). Specific activity was calculated using the molar […]
for the PDHc E1 assay. […] 5 […]

porcine PDHc E1 = biological target: T2, porcine PDHc E1 (Sus scrofa, UniProt P29804); assay: PDHc E1 inhibitory activity assay (DCPIP reduction); assay type: biochemical; details: porcine PDHc E1; read-out: KM(ThDP) PDHc E1
T2 sequence (P29804 31-390): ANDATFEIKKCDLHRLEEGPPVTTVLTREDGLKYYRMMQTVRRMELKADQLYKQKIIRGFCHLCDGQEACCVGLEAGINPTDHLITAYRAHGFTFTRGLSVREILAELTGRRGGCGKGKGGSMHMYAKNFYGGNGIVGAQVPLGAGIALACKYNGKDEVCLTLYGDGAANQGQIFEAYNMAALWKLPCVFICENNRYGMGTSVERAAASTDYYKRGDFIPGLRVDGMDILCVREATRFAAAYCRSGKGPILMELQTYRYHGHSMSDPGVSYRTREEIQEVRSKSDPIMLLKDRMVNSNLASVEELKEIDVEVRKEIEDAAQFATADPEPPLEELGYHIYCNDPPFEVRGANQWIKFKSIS
Method: Enzyme assays – Methods and Results S1
Ligand efficiencies – Calculations S3 […]
Enzyme assays (Methods and Results)
PDHc E1 inhibitory activity assay. Porcine PDHc E1 was purchased from Sigma. Its activity was […]
determined by monitoring 2,6-dichlorophenolindophenol (DCPIP) reduction at 600 nm using a […]
microplate reader (CLARIOstar) and conducted as described 1,2 with some modifications. The percentage inhibition of compounds against porcine PDHc E1 was assayed at a final concentration of 250 µM. The reaction buffer (50 mM KH 2PO4 and 1 mM MgCl 2, pH 7) contained 50 µM ThDP (or 125 µM in the competition assay), 0.25 mM DCPIP, and 2 mg/ml porcine PDHc E1. The reaction mixture […]
was preincubated at 37 °C for 30 min, then the reaction was initiated by adding pyruvate to a final […]
concentration of 50 mM. To determine the half-maximal inhibitory concentration (IC 50 ), ThDP […]
concentration was lowered to 10 µM, and inhibitor concentration was varied (0.4-200 µM). Specific […]
activity was calculated using the molar extinction coefficient of DCPIP, 21 mM -1 cm-1.3 The enzyme […]
IC50 values were calculated from non-linear regression curve fitting using GraphPad Prism.

[1] = biological target: PDC from Zymomonas mobilis; parameters: method as in PMID 19082157, PMID 20099870; details: ref [8],[24]; cited from earlier work
[2] = system: P. falciparum 3D7 expressing PfTPK-GFP; parameters: method as in PMID 23804074; details: thiamine-free culture medium; ref [15]; cited from earlier work
P. falciparum strain 3D7 = details: thiamine 2.97 μM vs absence of thiamine; ref [15]; cited from earlier work
[3] = substrate: Cc1ncc(C[n+]2csc(CCO[P@](=O)(O)OP(=O)(O)O)c2C)c(N)n1; assay: Z. mobilis PDC inhibitory activity assay (NADH consumption); assay type: biochemical, Zymomonas mobilis; details: pH 7.0; 37.0 °C
[4] = substrate: Cc1ncc(C[n+]2csc(CCO[P@](=O)(O)OP(=O)(O)O)c2C)c(N)n1; assay: A. viridans PO inhibitory activity assay (quinoneimine dye); assay type: biochemical, Aerococcus viridans; details: other: A. viridans PO; 37.0 °C
Method: A. viridans PO inhibitory activity assay. A. viridans PO and horseradish peroxidase were purchased from Sigma. A. viridans PO activity was determined by monitoring appearance of quinoneimine dye at 550 nm using a microplate reader (CLARIOstar) and conducted as described 1 with some modifications.
The percentage inhibition of compounds against A. viridans PO was assayed at a final concentration of 250 µM. The reaction buffer (50 mM KH 2PO4 and 10 mM MgCl 2, pH 5.9) contained 50 µM ThDP (or 125 µM in the competition assay), 10 µM flavin adenine dinucleotide (FAD), 0.15% 4-Aminoantipyrine, 0.3% N-Ethyl-N-(2-hydroxy-3-sulfopropyl)-m-toluidine (EHSPT), 50 µg/mL horseradish peroxidase and 0.35 U/mL A. viridans PO. The reaction mixture was preincubated at 37 °C for 30 min, then reaction was initiated by adding pyruvate to a final concentration of 50 mM. To determine the IC 50, inhibitor concentration was varied (2-1000 µM) with ThDP concentration at 50 µM. 1 unit of PO activity is defined as 1 μmol of hydrogen peroxide produced per minute. The enzyme IC 50 values were calculated as described for the PDHc E1 assay. […]

Q: Which results are given for Cc1ncc(C[n+]2csc(CCO[P@](=O)(O)OP(=O)(O)O)c2C)c(N)n1 [ThDP, thiamine diphosphate]?
A: Km (E. coli OGDHc E1): 3 µM; Km (porcine PDHc E1): 0.05 µM

Q: With Cc1ncc(Cn2cc(CCOP(=O)(O)OP(=O)(O)O)nn2)c(N)n1 [Triazole-ThDP 5] as the molecule, how does the Ki [1] read?
A: 0.03 nM

Q: Which “fold more sensitive, parasite over-expressing TPK vs parasite bearing an empty plasmid” value [2] does the source give for Cc1ncc(C[n+]2csc(CCO)c2C)c(O)n1 [Compound 7a, oxythiamine] here?
A: 70 fold

Q: And the “fold increase of IC50 with added thiamine” value (P. falciparum strain 3D7)?
A: 470 fold

B1: Z. mobilis PDC (Zymomonas mobilis subsp. mobilis ZM4 = ATCC 31821) (protein)
chain: MSYTVGTYLAERLVQIGLKHHFAVAGDYNLVLLDNLLLNKNMEQVYCCNELNCGFSAEGYARAKGAAAAVVTYSVGALSAFDAIGGAYAENLPVILISGAPNNNDHAAGHVLHHALGKTDYHYQLEMAKNITAAAEAIYTPEEAPAKIDHVIKTALREKKPVYLEIACNIASMPCAAPGPASALFNDEASDEASLNAAVEETLKFIANRDKVAVLVGSKLRAAGAEEAAVKFADALGGAVATMAAAKSFFPEENPHYIGTSWGEVSYPGVEKTMKEADAVIALAPVFNDYSTTGWTDIPDPKKLVLAEPRSVVVNGIRFPSVHLKDYLTRLAQKVSKKTGALDFFKSLNAGELKKAAPADPSAPLVNAEIARQVEALLTPNTTVIAETGDSWFNAQRMKLPNGARVEYEMQWGHIGWSVPAAFGYAVGAPERRNILMVGDGSFQLTAQEVAQMVRLKLPVIIFLINNYGYTIEVMIHDGPYNNIKNWDYAGLMEVFNGNGGYDSGAGKGLKAKTGGELAEAIKVALANTDGPTLIECFIGREDCTEELVKWGKRVAAANSRKPVNKLL
notes: made in house
Q: Which Km [3] does the source give for B1 here?
A: 0.35 µM

B2: A. viridans PO (Aerococcus viridans) (protein)
chain: MSDNKINIGLAVMKILESWGADTIYGIPSGTLSSLMDAMGEEENNVKFLQVKHEEVGAMAAVMQSKFGGNLGVTVGSGGPGASHLINGLYDAAMDNIPVVAILGSRPQRELNMDAFQELNQNPMYDHIAVYNRRVAYAEQLPKLVDEAARMAIAKRGVAVLEVPGDFAKVEIDNDQWYSSANSLRKYEPIAPAAQDIDAAVELLNNSKRPVIYAGIGTMGHGPAVQELARKIKAPVITTGKNFETFEWDFEALTGSTYRVGWKPANETILEADTVLFAGSNFPFSEVEGTFRNVDNFIQIDIDPAMLGKRHHADVAILGDAGLAIDEILNKVDAVEESAWWTANLKNIANWREYINMLETKEEGDLQFYQVYNAINNHADEDAIYSIDVGNSTQTSIRHLHMTPKNMWRTSPLFATMGIAIPGGLGAKNTYPDRQVWNIIGDGAFSMTYPDVVTNVRYNMPVINVVFSNTEYAFIKNKYEDTNKNLFGVDFTDVDYAKIAEAQGAKGFTVSRIEDMDRVMAEAVAANKAGHTVVIDCKITQDRPIPVETLKLDSKLYSEDEIKAYKERYEAANLVPFREYLEAEGLESKYIK
Q: With B2 as the molecule, how does the Km [4] read?
A: 5 µM
